The source of these data is US12122778B2, “Activating pyruvate kinase R” (Novo Nordisk Health Care AG, priority 2018, dated 2024).

In assay [1] the target is PKR(wt) (Homo sapiens, UniProt P30613). In words: Luminescence Biochemical Assay (Kinase Glo Plus), wild type PKR. As to conditions: without FBP; for activation at 1.54 µM: 1.54 μM compound, read-out: AC50 LUM KGP woFBP % Fold@1.54 μM mean; for AC50: read-out: AC50 LUM KGP woFBP AC50 μM gmean; for Emax: read-out: AC50 LUM KGP woFBP MAX % FOLD mean. The procedure: (§1) In some embodiments, a PKR Activating Compound can have: (1) an AC50 value of less than 0.1 μM (e.g., compounds with AC50 values of “+++” in Table 13), 0.1-1.0 μM (e.g., compounds with AC50 values of “++” in Table 13), or 1.01-40 μM (e.g., compounds with AC50 values of “+” in Table 13); (2) a MAX % Fold of 75%-250%, 250-500%, or 75%-500%; and/or (3) a % Fold@1.54 μM of 75%-250%, 250-500%, or 75%-500%. In some embodiments, a PKR Activating Compound has (1) an AC50 value of less than 1.0 μM; (2) a MAX % Fold of 75%-500%; and/or (3) a % Fold@1.54 μM of 75%-500%.
Sequence of PKR(wt) (P30613 whole entry): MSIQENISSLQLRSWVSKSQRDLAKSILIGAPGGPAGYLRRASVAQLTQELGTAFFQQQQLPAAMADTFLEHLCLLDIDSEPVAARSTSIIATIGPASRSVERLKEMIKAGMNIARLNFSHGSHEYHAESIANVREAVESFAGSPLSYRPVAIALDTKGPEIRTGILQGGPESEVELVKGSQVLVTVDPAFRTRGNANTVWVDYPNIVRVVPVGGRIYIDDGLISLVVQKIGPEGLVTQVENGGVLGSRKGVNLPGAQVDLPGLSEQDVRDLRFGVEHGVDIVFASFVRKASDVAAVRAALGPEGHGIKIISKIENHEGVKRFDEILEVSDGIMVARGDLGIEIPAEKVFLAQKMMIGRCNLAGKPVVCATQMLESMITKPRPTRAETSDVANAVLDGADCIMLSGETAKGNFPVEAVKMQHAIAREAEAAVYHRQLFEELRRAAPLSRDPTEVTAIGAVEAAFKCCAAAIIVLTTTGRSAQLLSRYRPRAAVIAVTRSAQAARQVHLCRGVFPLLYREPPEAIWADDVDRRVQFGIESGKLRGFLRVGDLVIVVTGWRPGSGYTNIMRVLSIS
(§2) The phosphorylation of Adenosine-5′-diphosphate (ADP) by various mutants of PKR was determined by the Kinase Glo Plus Assay (Promega) in the presence or absence of FBP [D-Fructose-1,6-diphosphate; BOC Sciences, CAS: 81028-91-3] as follows. Unless otherwise indicated, all reagents were purchased from Sigma-Aldrich. All reagents were prepared in buffer containing 50 mM Tris-HCl, 100 mM KCl, 5 mM MgCl2, and 0.01% Triton X100, 0.03% BSA, and 1 mM DTT. Enzyme and PEP [Phospho(enol) pyruvic acid] were added at 2× to all wells of an assay-ready plate containing serial dilutions of test compounds or DMSO vehicle. Final enzyme concentrations for PKR(wt), PKR(R510Q), and PKR(G332S) were 0.8 nM, 0.8 nM, and 10 nM respectively. Final PEP concentration was 100 μM. The Enzyme/PEP mixture was incubated with compounds for 30 minutes at RT before the assay was initiated with the addition of 2×ADP [Adenosine-5′-diphosphate] and KinaseGloPlus. Final concentration of ADP was 100 μM. […] For assays containing FBP, that reagent is added at 30 μM upon reaction initiation. Reactions were allowed to progress for 45 minutes at RT until luminescence was recorded by the BMG PHERAstar FS Multilabel Reader. All compounds were tested in triplicate at concentrations ranging from 42.5 μM to 2.2 nM in 0.83% DMSO.
(§3) Luminescence values were converted to % Fold increase by normalizing to the average of the DMSO control and multiplying by 100. Max, min, slope and AC50 were determined by the standard four parameter fit algorithm of ActivityBase XE Runner. Compounds were evaluated with three parameters—AC50, MAX % Fold, and % Fold@1.54 μM (FIG. 1). The AC50 value for a compound is the concentration (μM) corresponding to the midway between the maximum and minimum values of the four parameter logistic curve fit (i.e., at which the % fold increase along the four parameter logistic curve fit is halfway between MAX % Fold and MIN % Fold (% Fold Midpoint)), MAX % Fold is the highest fold increase observed at any concentration of compound, and % Fold@1.54 μM is the fold increase at a compound concentration of 1.54 μM. The parameter % Fold@1.54 μM was selected to capture elements of both the AC50 and MAX % Fold and to provide a ranking based on both potency and effect. The compound concentration of 1.54 μM was chosen as one that can optimally differentiate the set of compounds based on the range of activities observed.
(§4) As set forth in Table 13 below, AC50 values (columns A, D, G) are defined as follows: ≤0.1 μM (+++); >0.1 μM and ≤1.0 μM (++); >1.0 μM and ≤40 μM (+); >40 μM (0). Max % FOLD values (columns B, E, H) are defined as follows: ≤75% (+); >75% and ≤250% (++); >250% and ≤500% (+++). % Fold@1.54 μM values (columns C, F, J) are defined as follows: ≤75% (+); >75% and ≤250% (++); >250% and ≤50000 (+++).

Assay [2] has as its target PKR(R510Q) (Homo sapiens, UniProt P30613, R510Q). In words: Luminescence Biochemical Assay (Kinase Glo Plus), PKR R510Q mutant. Particulars: without FBP; for activation at 1.54 µM: 1.54 μM compound, read-out: AC50 LUM KGP woFBP % Fold@1.54 μM mean; for AC50: read-out: AC50 LUM KGP woFBP AC50 μM gmean; for Emax: read-out: AC50 LUM KGP woFBP MAX % FOLD mean. The procedure:
as §1, §2, §3, §4
(In general: Kinase-Glo reads ATP consumption through a luciferase reaction.)

A word on the AC50: it is the concentration at which the activity in the assay is half-maximal.

Sequence of PKR(R510Q) (P30613 whole entry R510Q): as the sequence (P30613 whole entry) above, with R510Q counted along it

In the case of `O=C([C@H](O)c1ccccc1)N1CC2=C(C1)CN(S(=O)(=O)c1cccc(F)c1)C2` [Example 18-50, (2R)-1-[5-(3-fluorobenzenesulfonyl)-1H,2H,3H,4H,5H,6H-pyrrolo[3,4-c]pyrrol-2-yl]-2-hydroxy-2-phenylethan-1-one], in assay [1], the activation at 1.54 µM lay in the range of 75 to 250%, the AC50 is 0.1 to 1 µM and the Emax is 75 to 250%. Further, in assay [2], the activation at 1.54 µM is 75 to 250%, the AC50 lay within 0.1 to 1 µM and the Emax was in the range of 250 to 500%.

As for `O=C(NCc1ccno1)N1CC2=C(C1)CN(S(=O)(=O)c1ccc3ncsc3c1)C2` [Example 21-27, 5-(1,3-Benzothiazole-6-sulfonyl)-N-(1,2-oxazol-5-ylmethyl)-1H,2H,3H,4H,5H,6H-pyrrolo[3,4-c]pyrrole-2-carboxamide], in assay [1], the activation at 1.54 µM was in the range of 75 to 250%, the AC50 fell in the range of 0.1 to 1 µM and the Emax was in the range of 75 to 250%. Besides, in assay [2], the activation at 1.54 µM was in the range of 75 to 250%, the half-maximal activity concentration (AC50) fell in the range of 1 to 40 µM and the Emax lay within 75 to 250%.

Turning to `O=C([C@H](O)c1ccccc1)N1CC2=C(C1)CN(S(=O)(=O)c1ccc(Cl)cc1)C2` [Example 18-10, (2R)-1-[5-(4-chlorobenzenesulfonyl)-1H,2H,3H,4H,5H,6H-pyrrolo[3,4-c]pyrrol-2-yl]-2-hydroxy-2-phenylethan-1-one], in assay [1], the activation at 1.54 µM lay in the range of 75 to 250%, the AC50 was 0.1 to 1 µM and the Emax lay in the range of 75 to 250%. Moreover, in assay [2], the activation at 1.54 µM was in the range of 75 to 250%, the AC50 lay within 1 to 40 µM and the Emax fell in the range of 250 to 500%.

Consider `COc1ccc(S(=O)(=O)N2CC3=C(CN(C(=O)[C@H](O)c4ccccc4)C3)C2)cc1F` [Example 18-17, (2R)-1-[5-(3-fluoro-4-methoxybenzenesulfonyl)-1H,2H,3H,4H,5H,6H-pyrrolo[3,4-c]pyrrol-2-yl]-2-hydroxy-2-phenylethan-1-one], for which, in assay [1], the activation at 1.54 µM lay within 75 to 250%, the half-maximal activity concentration (AC50) is no more than 0.1 µM and the Emax was in the range of 75 to 250%. In assay [2], the activation at 1.54 µM was in the range of 250 to 50000%, the AC50 was no more than 0.1 µM and the Emax lay within 250 to 500%.

As to `Cc1cc(CNC(=O)N2CC3=C(C2)CN(S(=O)(=O)c2ccc4ncsc4c2)C3)on1` [Example 21-9, 5-(1,3-Benzothiazole-6-sulfonyl)-N-[(3-methyl-1,2-oxazol-5-yl)methyl]-1H,2H,3H,4H,5H,6H-pyrrolo[3,4-c]pyrrole-2-carboxamide], in assay [1], the activation at 1.54 µM fell in the range of 75 to 250%, the concentration at half-maximal activity (AC50) was 0.1 to 1 µM and the Emax is 250 to 500%. In assay [2], the activation at 1.54 µM lay in the range of 75 to 250%, the AC50 is 0.1 to 1 µM and the Emax was in the range of 250 to 500%.

In the case of `O=C(NCc1cnccn1)N1CC2=C(C1)CN(S(=O)(=O)c1ccc3ncsc3c1)C2` [Example 21-30, 5-(1,3-Benzothiazole-6-sulfonyl)-N-(pyrazin-2-ylmethyl)-1H,2H,3H,4H,5H,6H-pyrrolo[3,4-c]pyrrole-2-carboxamide], in assay [1], the activation at 1.54 µM was 250 to 50000%, the concentration at half-maximal activity (AC50) lay in the range of 0.1 to 1 µM and the Emax is 250 to 500%. For the same molecule, in assay [2], the activation at 1.54 µM was in the range of 75 to 250%, the AC50 lay within 1 to 40 µM and the Emax lay within 250 to 500%.

With `CC(C)Oc1ccc(CNC(=O)N2CC3=C(C2)CN(S(=O)(=O)c2ccc4ncsc4c2)C3)cc1` [Example 21-31, 5-(1,3-Benzothiazole-6-sulfonyl)-N-{[4-(propan-2-yloxy)phenyl]methyl}-1H,2H,3H,4H,5H,6H-pyrrolo[3,4-c]pyrrole-2-carboxamide], in assay [1], the activation at 1.54 µM lay in the range of 75 to 250%, the AC50 lay within 1 to 40 µM and the Emax was 75 to 250%. Further, in assay [2], the activation at 1.54 µM was 75 to 250%, the AC50 fell in the range of 1 to 40 µM and the Emax was 75 to 250%.

For `O=C([C@H](O)c1ccccc1)N1CC2=C(C1)CN(S(=O)(=O)c1cccc(C(F)(F)F)c1)C2` [Example 18-49, (2R)-2-hydroxy-2-phenyl-1-{5-[3-(trifluoromethyl)benzenesulfonyl]-1H,2H,3H,4H,5H,6H-pyrrolo[3,4-c]pyrrol-2-yl}ethan-1-one], in assay [1], the activation at 1.54 µM was 75 to 250%, the AC50 lay within 0.1 to 1 µM and the Emax lay in the range of 75 to 250%. Also, in assay [2], the activation at 1.54 µM was in the range of 75 to 250%, the AC50 lay within 0.1 to 1 µM and the Emax is 75 to 250%.

Regarding `O=C(NCc1nccs1)N1CC2=C(C1)CN(S(=O)(=O)c1ccc3ncsc3c1)C2` [Example 21-28, 5-(1,3-Benzothiazole-6-sulfonyl)-N-(1,3-thiazol-2-ylmethyl)-1H,2H,3H,4H,5H,6H-pyrrolo[3,4-c]pyrrole-2-carboxamide], in assay [1], the activation at 1.54 µM fell in the range of 75 to 250%, the AC50 lay in the range of 0.1 to 1 µM and the Emax fell in the range of 250 to 500%. Moreover, in assay [2], the activation at 1.54 µM was in the range of 75 to 250%, the concentration at half-maximal activity (AC50) is 0.1 to 1 µM and the Emax was 75 to 250%.

Regarding `CC(C)Oc1cccc(CNC(=O)N2CC3=C(C2)CN(S(=O)(=O)c2ccc4ncsc4c2)C3)c1` [Example 21-21, 5-(1,3-Benzothiazole-6-sulfonyl)-N-{[3-(propan-2-yloxy)phenyl]methyl}-1H,2H,3H,4H,5H,6H-pyrrolo[3,4-c]pyrrole-2-carboxamide], in assay [1], the activation at 1.54 µM lay in the range of 75 to 250%, the AC50 is 0.1 to 1 µM and the Emax was 75 to 250%. In assay [2], the activation at 1.54 µM is 75 to 250%, the AC50 was in the range of 1 to 40 µM and the Emax was 75 to 250%.

`Cc1nn(C)c(Cl)c1S(=O)(=O)N1CC2=C(CN(C(=O)[C@H](C)c3ccccc3)C2)C1` [Example 19-2, (2R)-1-{5-[(5-chloro-1,3-dimethyl-1H-pyrazol-4-yl)sulfonyl]-1H,2H,3H,4H,5H,6H-pyrrolo[3,4-c]pyrrol-2-yl}-2-phenylpropan-1-one]: in assay [2], the activation at 1.54 µM lay in the range of 75 to 250%, the AC50 fell in the range of 1 to 40 µM and the Emax was in the range of 75 to 250%.

Turning to `N#Cc1ccc(S(=O)(=O)N2CC3=C(CN(C(=O)[C@H](O)c4ccccc4)C3)C2)cc1` [Example 18-45, 4-({5-[(2R)-2-hydroxy-2-phenylacetyl]-1H,2H,3H,4H,5H,6H-pyrrolo[3,4-c]pyrrol-2-yl}sulfonyl)benzonitrile], in assay [1], the activation at 1.54 µM is 75 to 250%, the AC50 lay within 0.1 to 1 µM and the Emax was 75 to 250%. In assay [2], the activation at 1.54 µM fell in the range of 75 to 250%, the AC50 lay in the range of 0.1 to 1 µM and the Emax is 250 to 500%.

For the molecule `O=C([C@H](O)c1ccccc1)N1CC2=C(C1)CN(S(=O)(=O)c1ccc(Cl)s1)C2` [Example 18-55, (2R)-1-{5-[(5-chlorothiophen-2-yl)sulfonyl]-1H,2H,3H,4H,5H,6H-pyrrolo[3,4-c]pyrrol-2-yl}-2-hydroxy-2-phenylethan-1-one], in assay [1], the activation at 1.54 µM fell in the range of 75 to 250%, the AC50 lay in the range of 0.1 to 1 µM and the Emax was 75 to 250%. In assay [2], the activation at 1.54 µM was 75 to 250%, the AC50 was in the range of 0.1 to 1 µM and the Emax was in the range of 250 to 500%.
